“And” between values parts separate entries of the source, which are not always exact repeats. Equal values may be shown once. Toxic doses and inconclusive results are not listed.
Test system: BDF1 mice, P388 leukemia ip, median survival T/C
Assay: NCI In Vivo Anticancer Drug Screen. Data for tumor model P388 Leukemia (intraperitoneal) in B6D2F1 (BDF1) mice
Conditions: endpoint: median survival time, higher = longer survival
How it was run: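 Steps: implant the tumour, treat one group with compound and another with vehicle, record survival, then divide treated by control.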

[1] = dose: 25.0 mg/kg/injection, schedule: Q01DX009 (ip), vehicle: saline with Tween-80
[2] = dose: 50.0 mg/kg/injection, schedule: Q01DX009 (ip), vehicle: saline with Tween-80
[3] = dose: 100.0 mg/kg/injection, schedule: Q01DX009 (ip), vehicle: saline with Tween-80

O=c1ccc2c([nH]1)CCC2
T/C [1]: 86 % of control | T/C (dose: 25.0 mg/kg/injection, schedule: Q04DX003 (ip), vehicle: saline): 100 % of control | T/C [2]: 90 % of control | T/C (dose: 50.0 mg/kg/injection, schedule: Q04DX003 (ip), vehicle: saline): 95 % of control | T/C [3]: 95 % of control | T/C (dose: 100.0 mg/kg/injection, schedule: Q04DX003 (ip), vehicle: saline): 100 % of control

COc1cccc(CN2CCCNCC2)c1
T/C (dose: 6.25 mg/kg/injection, schedule: Q04DX003 (ip), vehicle: water): 92 % of control | T/C (dose: 12.5 mg/kg/injection, schedule: Q04DX003 (ip), vehicle: water): 93 % of control | T/C (dose: 25.0 mg/kg/injection, schedule: Q04DX003 (ip), vehicle: water): 93 % of control | T/C (dose: 50.0 mg/kg/injection, schedule: Q04DX003 (ip), vehicle: water): 112 % of control | T/C (dose: 100.0 mg/kg/injection, schedule: Q04DX003 (ip), vehicle: water): 89 % of control

COC(=O)c1cc(=O)nc(NN=C(C)C)s1
T/C (dose: 50.0 mg/kg/injection, schedule: Q01DX005 (ip), vehicle: saline with Tween-80): 91 % of control | T/C (dose: 100.0 mg/kg/injection, schedule: Q01DX005 (ip), vehicle: saline with Tween-80): 100 % of control

CC(C)(C)c1cc2c3c(c1)C(C)(C)OS3(C)(=O)OC2(C)C
T/C (dose: 12.5 mg/kg/injection, schedule: Q04DX002 (ip), vehicle: saline with Tween-80): 93 % of control | T/C (dose: 25.0 mg/kg/injection, schedule: Q04DX002 (ip), vehicle: saline with Tween-80): 107 % of control | T/C (dose: 50.0 mg/kg/injection, schedule: Q04DX002 (ip), vehicle: saline with Tween-80): 97 % of control and 98 % of control

Cc1n[nH]c(=S)[nH]c1=S
T/C (dose: 25.0 mg/kg/injection, schedule: Q04DX003 (ip), vehicle: saline with Tween-80): 109 % of control | T/C (dose: 50.0 mg/kg/injection, schedule: Q04DX003 (ip), vehicle: saline with Tween-80): 100 % of control | T/C (dose: 100.0 mg/kg/injection, schedule: Q04DX003 (ip), vehicle: saline with Tween-80): 104 % of control

O=C1c2cccc3cc([N+](=O)[O-])cc(c23)C(=O)N1CCN1CCCC1
T/C (dose: 6.25 mg/kg/injection, schedule: Q01DX009 (ip), vehicle: saline with Tween-80): 157 % of control | T/C (dose: 12.5 mg/kg/injection, schedule: Q01DX009 (ip), vehicle: saline with Tween-80): 177 % of control

CC1(C)N=C(N)N=C(N)N1c1ccc(CCCCc2ccc(S(=O)(=O)F)cc2Cl)c(Cl)c1
T/C (dose: 5.0 mg/kg/injection, schedule: Q01DX009 (ip), vehicle: saline with Tween-80): 157 % of control | T/C (dose: 7.5 mg/kg/injection, schedule: Q01DX009 (ip), vehicle: saline with Tween-80): 150 % of control and 166 % of control | T/C (dose: 8.0 mg/kg/injection, schedule: Q04DX003 (ip), vehicle: saline with Tween-80): 168 % of control | T/C (dose: 11.5 mg/kg/injection, schedule: Q01DX009 (ip), vehicle: saline with Tween-80): 200 % of control | T/C (dose: 12.0 mg/kg/injection, schedule: Q04DX003 (ip), vehicle: saline with Tween-80): 186 % of control | T/C (dose: 17.0 mg/kg/injection, schedule: Q01DX009 (ip), vehicle: saline with Tween-80): 188 % of control and 191 % of control | T/C (dose: 18.0 mg/kg/injection, schedule: Q04DX003 (ip), vehicle: saline with Tween-80): 200 % of control | T/C [1]: 208 % of control and 220 % of control | T/C (dose: 26.0 mg/kg/injection, schedule: Q04DX003 (ip), vehicle: saline with Tween-80): 200 % of control | T/C (dose: 26.5 mg/kg/injection, schedule: Q04DX003 (ip), vehicle: saline with Tween-80): 195 % of control | T/C (dose: 37.0 mg/kg/injection, schedule: Q01DX009 (ip), vehicle: saline with Tween-80): 176 % of control | T/C (dose: 40.0 mg/kg/injection, schedule: Q04DX003 (ip), vehicle: saline with Tween-80): 209 % of control | T/C [2]: 241 % of control | T/C (dose: 60.0 mg/kg/injection, schedule: Q04DX003 (ip), vehicle: saline with Tween-80): 176 % of control | T/C (dose: 88.0 mg/kg/injection, schedule: Q04DX003 (ip), vehicle: saline with Tween-80): 209 % of control | T/C (dose: 90.0 mg/kg/injection, schedule: Q04DX003 (ip), vehicle: saline with Tween-80): 180 % of control | T/C [3]: 116 % of control | T/C (dose: 133.0 mg/kg/injection, schedule: Q04DX003 (ip), vehicle: saline with Tween-80): 272 % of control | T/C (dose: 200.0 mg/kg/injection, schedule: Q04DX003 (ip), vehicle: saline with Tween-80): 272 % of control

CN(C)c1ccc(C(/C=N\O)(c2ccc(N(C)C)cc2)c2ccc(N(C)C)cc2)cc1
T/C (dose: 100.0 mg/kg/injection, schedule: Q04DX003 (ip), vehicle: Klucel (hydroxypropylcellulose) (HPC)): 104 % of control | T/C (dose: 200.0 mg/kg/injection, schedule: Q04DX003 (ip), vehicle: Klucel (hydroxypropylcellulose) (HPC)): 100 % of control | T/C (dose: 400.0 mg/kg/injection, schedule: Q04DX003 (ip), vehicle: Klucel (hydroxypropylcellulose) (HPC)): 109 % of control

Oc1cc2c(cc1O)C1c3ccc(O)c(O)c3OCC1(O)C2 (centres undefined)
T/C [2]: 97 % of control | T/C [3]: 118 % of control | T/C (dose: 200.0 mg/kg/injection, schedule: Q01DX009 (ip), vehicle: saline with Tween-80): 102 % of control | T/C (dose: 400.0 mg/kg/injection, schedule: Q01DX009 (ip), vehicle: saline with Tween-80): 103 % of control

CC12CCC(O)CC1CCC1C2CCC2(C)C(C3=CC(=O)OC3)CCC12 (centres undefined)
T/C (dose: 140.0 mg/kg/injection, schedule: Q01DX010 (ip), vehicle: carboxymethylcellulose (CMC)): 122 % of control | T/C (dose: 280.0 mg/kg/injection, schedule: Q01DX010 (ip), vehicle: carboxymethylcellulose (CMC)): 122 % of control
